Key:
[1] = tested on: male rats; assay: Passive avoidance in the shuttle chamber, Scopolamine amnesia model, rats; type: in vivo, rat; conditions: compounds injected 60 minutes before the test, read 24 hours after training, FIG. 1-3
Procedure: 14.1.1. Passive Avoidance of mice in the Shuttle Chamber. The experiments were carried out in aged male mice of BALB/c line weighing 20-24 g or male rats weighing 200-250 g.
A shuttle chamber (Ugo Basile, Italy) that consisted of two sections was used. One section was white and lightened, the other one was dark. The sections were connected through a hole which could be overlapped by automatic vertical door. The floor of the dark section was made of transverse metal bars on which DC current impulses could be fed.
On the first day of testing 30 minutes before training the animals were injected intraperitoneally with Scopolamine which causes disturbance of training (memory loss). The animals of the trial group were additionally administered with one of the tested compounds. The animals of the control group were injected with physiological solution. Each group consisted of 8 animals. The animals were placed in the light section, and latent period of the first entry into the dark chamber was registered. Then vertical door was closed and the animal was punished by 0.6 mA DC current for 3 seconds. After that the animal was taken back to its home cage. […]

[2] = tested on: rats; assay: Passive avoidance in the shuttle chamber, amnesia caused by MK-801, rats; type: in vivo, rat; conditions: MK-801 0.1 mg/kg i.p., compounds injected 60 minutes before the test, FIG. 8-10
[3] = tested on: Mice of SHK line; assay: Prepulse inhibition of the startle response in mice (Apomorphine model); type: in vivo, mouse; conditions: 1 mg/kg i.p. 60 minutes before the test; FIG. 17
Procedure: Mice of SHK line weighing about 24-30 g were used in the test. The experiments were carried out during the light period of animal's diurnal. Apomorphine hydrochloride and Haloperidol were received from Sigma Chemicals Company, (USA). Apomorphine hydrochloride was dissolved in 0.1% solution of ascorbic acid prepared with sterilized water; it was introduced subcutaneously 15 minutes before the test. Haloperidol was dissolved in sterilized water using emulsifier Twin 80, it was introduced intraperitoneally 60 minutes before the test. Compounds 1.2.22(1), 1.2.22(18), 1.2.7(1) were dissolved in sterilized water and introduced intraperitoneally 60 minutes before the test. The injection volume was 10 ml/kg. 0.1%. Solution of ascorbic acid, prepared with sterilized water and Twin 80, was injected to control group of animals.
The test instrument consisted of a chamber made of transparent plexiglass (manufacturer—Columbia Instruments Company, USA) and placed on the platform; the latter was lodged inside the sound insulating chamber. A high frequency sound column transmitting acoustic stimuluses was located 2 cm away from the platform. […] The level of background noise made up 65 dB. Each animal received 4 stimuli of single testing (pulse) stimulus of 50 ms duration and 105 dB or prepulsory stimulus (pre-pulse) of 20 ms duration and 85 dB, after which in 30 ms pulse stimulus of 50 ms duration and 105 dB followed. Time interval between repeated pulse or prepulse in combination with pulse stimuli made up 10 s. Inhibition of the startle in reply to prepulse-plus-pulse stimulus was calculated in percentage towards amplitude of startle in response to isolated pulse stimulus.

[4] = biological target: T1, 5-HT6 receptor (Homo sapiens (Human), UniProt P50406); assay: functional assay for serotonin 5-HT6 receptor inhibition (serotonin-induced intracellular cAMP, LANCE cAMP kit, HEK 293 cells); type: cell-based; conditions: HEK 293 cells with expressed 5-HT6 receptor; reduction of serotonin-induced intracellular cAMP
T1 sequence (P50406 whole entry): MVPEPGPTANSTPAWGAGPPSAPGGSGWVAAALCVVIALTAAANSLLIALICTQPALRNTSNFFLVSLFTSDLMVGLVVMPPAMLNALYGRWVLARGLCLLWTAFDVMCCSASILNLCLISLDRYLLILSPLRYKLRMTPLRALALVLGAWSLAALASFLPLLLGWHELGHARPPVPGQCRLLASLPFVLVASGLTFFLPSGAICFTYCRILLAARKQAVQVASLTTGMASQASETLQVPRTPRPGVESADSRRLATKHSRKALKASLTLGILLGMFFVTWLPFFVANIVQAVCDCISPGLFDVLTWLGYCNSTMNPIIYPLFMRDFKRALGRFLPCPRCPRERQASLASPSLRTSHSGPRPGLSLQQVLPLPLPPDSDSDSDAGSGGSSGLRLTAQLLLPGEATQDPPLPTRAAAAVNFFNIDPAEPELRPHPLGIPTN

[5] = tested on: male mice of BALB/c line; assay: Tail suspension test; type: in vivo, mouse; conditions: i.p. during 4 days; FIG. 19
Description: 17.2. Mice behavior in tail suspension test. Tail suspension test was described by Steri et al. (1985) as a convenient method for investigation of potential antidepressants. It is supposed that forced immobility in rodents could be used as a model for investigation of depressive disorders at humans. Clinically effective antidepressants lower mice immobility which follows negative attempts to become free when their tails are fixed.
Male mice of BALB/c line weighing about 20-30 g were used in the test. The animals were suspended by tail with a sticky tape on the holder over a horizontal surface at a height of about 40 cm, and the total duration of complete immobility episodes was registered in the course of 3 minutes. […] Automated computerized detection of motion with videosystem and Any-maze program were used in the test. The tested compounds 1.2.7(1) and 1.2.22(18) were administered intraperitoneally during 4 days. Reference substances (Fluoxetine, Desipramine) were injected intraperitoneally 15 minutes before the beginning of the test.

[6] = tested on: male mice of SHK line; assay: Novel object recognition test, Scopolamine amnesia model; type: in vivo, mouse; conditions: Scopolamine 1 mg/kg i.p.; compounds i.p. 60 minutes before training; FIG. 7
Procedure: 14.1.2. Novel object recognition test. The test was carried out in aged male mice of SHK line. […] A mouse was placed into the central chamber and allowed to explore the maze. The floor was cleaned after each animal. The sequence of chamber entries and duration of visits were registered by the observer. The test was ended after 13 entries into the dead-end chambers. Criterion for entry was a location of all animal's paws inside the chamber at the same time.
During the training the animal was placed in the maze with one equiform bowl in each side chamber. In the course of testing (one hour after training) two opposite standing bowls were replaced by identical flasks, and the animal was allowed to explore the maze. The time spent by the animal in each side chamber was registered during the periods of training and testing. Index of novel object recognition was calculated as the ratio of time spent by the animal in the side chambers with novel objects to the total time spent by it in all side chambers.

[7] = tested on: male mice of BALB/c line; assay: Porsolt's Forced Swim Test; type: in vivo, mouse; conditions: i.p. for 4 days subchronically; FIG. 18
Procedure: 17.1. Mice Behavior in Porsolt's Forced Swim Test. Expression of behavioral despair was offered to use as a model for investigation of antidepressant activity in Porsolt's test (1977, 1978). That is, the behavior of a mouse or rat in a closed basin, from which the animal can not get out, cheracterizes the level of its despair which could be reduced by means of antidepressant intake.
Male mice of BALB/c line weighing about 20-30 g were used in the test. The animals were placed for 15 minutes in the basin (of 300 mm height, 480 mm diameter) filled with water to 70% of its volume at 25° C. In 3-5 minutes swimming activity began to decrease and change by phases of movement and immobility. […] Data for the last 5 minutes of the test were taken for the analysis. Automated computerized detection of motion with videosystem and Any-maze program were used in the test. The tested compounds 1.2.7(1) and 1.2.22(18) were injected intraperitonelly for 4 days subchronically.

[8] = biological target: T1, 5-HT6 receptor; assay: competitive radioligand binding ([3H] Lysergic acid diethylamide) to serotonin 5-HT6 receptors, HeLa cell membranes; conditions: read-out: IC50, competitive assay of serotonin 5-HT6 receptor inhibition; displacement of 1.5 nM [3H] Lysergic acid diethylamide, 120 min at 37° C.
Procedure: Determination of activity of the compounds of the general formula 1 in the setting of competitive binding to serotonin 5-HT6 receptors.
Screening of the disclosed compounds for their potential ability to interact with serotonin 5-HT6 receptors was carried out by method of radioligand binding. For this purpose membrane species were prepared from expressing recombinant human 5-HT6 receptors HeLa cells by means of their homogenization in glass homogenizer with subsequent separation of plasmatic membranes from cell nucli, mitochondria's and cell wreckages by differential centrifugation. Determination of tested compounds binding to 5-HT6 receptors was carried out according to the method described in [Monsma F J Jr, Shen Y, Ward R P, Hamblin M W and Sibley D R, Cloning and expression of a novel serotonin receptor with high affinity for tricyclic psychotropic drugs. […] After incubation the samples were filtered in vacuo on glass-microfiber filters G/F (Millipor, USA), filters were washed three times with cold solution of the medium and radioactivity was measured by scintillation counter MicroBeta 340 (PerkinElmer, USA). Nonspecific binding which made up 30% of overall binding was determined by incubation of membrane preparations with radioligand in the presence of 5 μM Serotonin (5-HT). Methiothepin was used as positive control. Binding of the tested compounds to the receptor was determined by their ability to displace the radioligand and expressed in percent of displacement. The percent of displacement was calculated according to the following equation:
[formula] wherein: TA—was overall radioactivity in the presence of radioligand only, CA—was radioactivity in the presence of radioligand and tested compound and NA—was radioactivity in the presence of radioligand and Serotonin (5 μM).

## CNc1nn2c(C)cc(CO)nc2c1S(=O)(=O)c1ccccc1 [1.2.7(1), 5-(hydroxymethyl)-7-methyl-2-methylamino-3-phenylsulfonyl-pyrazolo[1,5-a]pyrimidine]
[1]
  effect on amnesia caused by Scopolamine (latent period, light arm stay, dark arm entries): decrease amnesia
[2]
  effect on amnesia caused by MK-801 (latent period, light arm stay, dark arm entries): decrease amnesia caused by MK-801
[3]
  effect on Apomorphine-disturbed prepulse inhibition of startle: prevented disturbance of prepulse inhibition of startle caused by Apomorphine
[4]
  IC50: 19 nM
[5]
  antidepressant activity, immobility in tail suspension test: antidepressant activity comparable with the activity of Fluoxetine and Desipramine
[6]
  prevention of Scopolamine-disturbed novel object recognition: prevent memory impairment caused by Scopolamine
[7]
  antidepressant activity, immobility during the final 5 minutes in Porsolt's test: exhibits antidepressant activity
[8]
  IC50: 0.88 nM
